Assays:
[1] = test system: hematopoietic stem cells derived from cord blood; assay: Enhancement of HSCs derived from cord blood with Compound 1.008 (Example 34); format: cell-based; conditions: 19 days in culture
Experimental: A frozen cord blood sample was thawed and gradually brought to room temperature. Thawed cord blood was incubated in an in vitro culture media of Alpha MEM without phenol red, 10% (v/v) heat inactivated fetal bovine serum (FBS). Four samples were tested: Base conditions, +SF Conditions, +1.008 Conditions, and +1.008/+ER conditions. The components included in each condition is described in [0574] Table 4. Each condition tested also included an antibiotic solution that includes penicillin, streptomycin, and amphotericin B to avoid contamination.
(§1) Cultures were incubated at […] (controlled by nitrogen) and 5% CO2.
(§2) Small molecule components were added separately and fresh each time the media needs to be refreshed. Cytokines can be stored together. Media renewal should occur at least every few days.
(§3) On the days indicated varying amounts of the cell culture was removed for data analysis (flow cytometry using a BD FACS ARIA II) and to avoid overcrowding of cells. The culture volume was replenished with fresh media according to the conditions tested. The data reported accounts for the dilution factor introduced in this procedure.

[2] = test system: CD34+ cells isolated from donor peripheral blood; assay: Enhancement of HSCs derived from non-mobilized peripheral blood with compounds of Formula I (Example 33); format: cell-based; conditions: sample compound 4 μM; normalized fold change days 2 to 7
Experimental: CD34+ cells were isolated from donor peripheral blood. Standard buffy coat separation using ficoll paque was performed. Cells were pelleted and incubated with unlabeled CD64 antibody. Cells then underwent negative depletion using biotinylated CD2, CD3, CD4, CD5, CD8, CD11b, CD14, CD16, CD19, CD20, CD45RA, CD56, CD235 (in some examples CD15, CD25 and other lineage specific antibodies may also be used). Cells which bind these antibodies are depleted using streptavidin beads. The enriched progenitor pool then undergoes cell sorting for CD34+.
Isolated CD34+ cells were incubated in an in vitro culture media of Alpha MEM without phenol red with 10% (v/v) heat inactivated fetal bovine serum (FBS). When testing compounds of Formula I, two internal controls were used: a positive control (+SF conditions) and a baseline control (i.e. basic conditions (“cytokines only”)). The media components and concentrations used for the compounds tested are described in [0563] Table 2. The culture also included an antibiotic solution that includes penicillin, streptomycin, and amphotericin B to avoid contamination. Controls were included because the amount of expansion in samples obtained varies from individual to individual.
as §1, §2
as §3, with “one-half of the volume” for “varying amounts”, “II).” for “II) and to avoid overcrowding of cells.”
Separate experiments were performed for each compound tested (Compound 1.001-1.023).
(§4) Table 3, below, summarizes the relative expansive effect of Compound 1.001 to 1.023 (sample compounds) at the indicated concentration. The data in Table 3 is reported as the relative expansive effect. The relative expansive effect is a normalized value of the fold changes shown in each of FIG. 1-FIG. 23. It is calculated as shown below: […]

[3] = test system: CD34+ cells from cord blood; assay: Expansion of cord blood CD34+ cells, seven-day culture (Example 35); format: cell-based, human; conditions: sample compound 8 μM, normalized fold change days 1 to 7
Experimental: CD34+ cells from cord blood were purchased from STEMCELL Technologies. Primary human CD34+ cells were isolated from cord blood samples using positive immunomagnetic separation techniques. Cells were thawed and gradually brought to room temperature. Samples were washed, then placed in overnight culture in StemSpan with 100 ng/ml each of FLT3L, TPO, SCF, and TL-6. Eighteen to twenty-four hours later (day 1), cells were counted and immunophenotyped (flow cytometry on an Invitrogen Attune N×T cytometer).
Approximately 1000 live cells were plated into each well of 96-well plates; exact cell numbers dispensed per well were quantified with flow cytometry for later calculations.
Media for testing compounds of Formula I was prepared using Alpha MEM without phenol red, 10% (v/v) heat inactivated fetal bovine serum. Culture conditions also included an antibiotic solution that includes penicillin, streptomycin, and amphotericin B to avoid contamination. Additional media components and concentrations used for the compounds tested are described in Table 5.
All incubations for this experiment took place at 3% oxygen (controlled by nitrogen) and 5% CO2. Following seven days of culture, cells from wells were collected and phenotypes were analyzed (flow cytometry on an Invitrogen Attune N×T cytometer).
as §4, with “6” for “3,”, “the screened compounds” for “Compound 1.001 to 1.023 (sample compounds)”, “6” for “3”, “the figures.” for “FIG. 1-FIG. 23.”

[4] = +1.008 conditions (Compound 1.008 250 nM)

CC(C)(C)C(=O)Nc1ccc2c(c1)C(=O)c1cc(N)ccc1-2 [Compound 1.008, N-(7-amino-9-oxo-9H-fluoren-2-yl)pivalamide]
fold increase in CD34+/CD133+ cells from day 2 [1, 4]: greater than 50 fold | fold increase in CD34+/CD133+/CD90+ cells from day 2 [1, 4]: ~20 fold | fold increase in CD34+/CD133+/CD90+/CD38low/− cells from day 2 [1, 4]: > 12 fold | fold increase in CD34+ cells from day 2 ([1]; +1.008 conditions (Compound 1.008 250 nM, TPO, SCF, FLT3L)): greater than 50 fold | CD90 effect (relative expansive effect on CD34+/CD133+/CD90+ cells) [2]: +++++ (1.25 ≤ x) | CD133 effect (relative expansive effect on CD34+/CD133+ cells) [2]: +++ (0.55 ≤ x < 0.9) | CD90 effect (relative expansive effect on CD34+/CD133+/CD90+ cells) [3]: ++++ (2.16 ≤ x < 2.52) | CD133 effect (relative expansive effect on CD34+/CD133+ cells) [3]: ++++ (2.16 ≤ x < 2.52)

Reference: patent US20220315895A1, “METHODS OF MAKING OLIGOPOTENT AND UNIPOTENT PRECURSORS” (Transfusion Health, LLC, priority 2019, published 2022)
